How the values were obtained:
Coriolus versicolor = assay: Inhibition of hypha growth on malt extract agar, Coriolus versicolor; assay type: cell-based; settings: Trametes versicolor, 28±2° C., 2 to 10 days, read-out: Controlling effect (growth inhibition rate) COV
[1] = system: Cladosporium cladosporioides; assay: Inhibition of hypha growth on malt extract agar, Cladosporium cladosporioides; settings: read-out: Controlling effect (growth inhibition rate) CLC
Method: (§1) Each preparation to be tested was added to malt extract agar medium to adjust the concentration to 50 ppm, and the resulting mixture was dispensed into Petri dishes. As an inoculum, a prepared mycerial tuft of each test fungus was punched out together with agar by means of a 4-mm-diameter cork borer and inoculated on medium. The incubation temperature was adjusted to 28±2° .C (or 18±2° C. in the case of Selupula lacrymas).
(§2) The diameter of mycerial tuft was measured 2 to 10 days after the inoculation, and the inhibition rate of hypha growth (the following equation) was measured.

Phytophthora infestants = assay: whole plant or invertebrate; assay type: in vivo; settings: 168 h; read-out: Controlling effect Pi (tomato late blight)
Chaetomium globosum = assay: Inhibition of hypha growth on malt extract agar, Chaetomium globosum; settings: read-out: Controlling effect (growth inhibition rate) CHG
Method: as §1, §2
(§3) The controlling effect was evaluated according to the following criterion.

Fusarium oxysporum = assay: Inhibition of hypha growth on malt extract agar, Fusarium oxysporum; settings: read-out: Controlling effect (growth inhibition rate) FUO
Method: as §1, §2, §3

Pyricularia oryzae = assay: whole plant or invertebrate; assay type: in vivo; settings: 168 h, read-out: Controlling effect Ps (rice blast)
Alternaria mali = assay: Inhibition of hypha growth on malt extract agar, Alternaria mali; settings: read-out: Controlling effect (growth inhibition rate) ALM
Method: as §1, §2, §3

Botrytis cinerea = assay: Controlling effect (curing effect) on cucumber gray mold; assay type: in vivo; settings: 72 h, immersion of inoculated cotyledons, 15° C., read-out: Controlling effect Bc (cucumber gray mold)
Method: Controlling effect (curing effect) on cucumber gray mold The cotyledons of potted cucumber plants at the 1 leaf stage were cut off and each of them was inoculated with a mycelial tuft of gray mold fungus (Botrytis cinerea) cultured on PSA medium. After having been placed in a moist chamber at 15° C. for 24 hours, the cotyledons were immersed in a 200 ppm liquid chemical containing each compound of the present invention as active ingredient. […]

Serpula lacrymans = assay: Inhibition of hypha growth on malt extract agar, Serpula lacrymans; settings: read-out: Controlling effect (growth inhibition rate) SEL
Method: as §1, §2

Trichoderma viride = assay: Inhibition of hypha growth on malt extract agar, Trichoderma viride; settings: read-out: Controlling effect (growth inhibition rate) TRV
Method: as §1, §2

Aspergillus niger = assay: Inhibition of hypha growth on malt extract agar, Aspergillus niger; settings: read-out: Controlling effect (growth inhibition rate) ASN
Method: as §1, §2, §3

[2] = system: Pseudoperonospora cubensis; assay: Controlling effect on cucumber Downy mildew; assay type: in vivo; settings: 168 h, 200 ppm spray, inoculation after 24 hours, read-out: Controlling effect Pc (cucumber downy mildew)
Rhizopus nigricans = assay: Inhibition of hypha growth on malt extract agar, Rhizopus nigricans; settings: Rhizopus stolonifer, read-out: Controlling effect (growth inhibition rate) RHS
Method: as §1, §2

Tyromyces palustris = assay: Inhibition of hypha growth on malt extract agar, Tyromyces palustris; settings: read-out: Controlling effect (growth inhibition rate) TYP
Method: as §1, §2

SMILES | inhibition at 50 ppm (Coriolus versicolor) | inhibition at 50 ppm [1] | pest or weed control at 200 ppm (Phytophthora infestants) | inhibition at 50 ppm (Chaetomium globosum) | inhibition at 50 ppm (Fusarium oxysporum) | pest or weed control at 200 ppm (Pyricularia oryzae) | inhibition at 50 ppm (Alternaria mali) | pest or weed control at 200 ppm (Botrytis cinerea) | inhibition at 50 ppm (Serpula lacrymans) | inhibition at 50 ppm (Trichoderma viride) | inhibition at 50 ppm (Aspergillus niger) | pest or weed control at 200 ppm [2] | inhibition at 50 ppm (Rhizopus nigricans) | inhibition at 50 ppm (Tyromyces palustris)
CC(C)Oc1nsc(S(C)(=O)=O)c1C#N [Compound 50] | 100% | 100% | 80 to 94% | 100% | 100% | 80 to 94% | 100% | 0 to 59% | 100% | 100% | 100% | 95 to 100% | 100% | 100%
C#CCOc1nsc(S(=O)(=O)CCOCC)c1C#N [Compound 82] | 100% | 100% | 95 to 100% | 100% | 100% | 95 to 100% | 100% | 60 to 79% | 100% | 100% | 100% | 95 to 100% | 100% | 100%
COc1nsc(S(=O)(=O)c2ccccc2)c1C#N [Compound 89, 3-methoxy-4-cyano-5-phenylsulfonylisothiazole] | 100% | 100% | 95 to 100% | 100% | 100% | 95 to 100% | 100% | 60 to 79% | 100% | 100% | 100% | 80 to 94% | 100% | 100%
COc1nsc(S(=O)(=O)c2ccc(Cl)cc2)c1C#N [Compound 93] | 100% | 100% | 95 to 100% | 100% | 100% | 95 to 100% | 100% | 60 to 79% | 100% | 100% | 100% | 95 to 100% | 100% | 100%
COc1nsc(S(=O)(=O)C(F)F)c1C#N [Compound 140] | 100% | 100% | 95 to 100% | 100% | 100% | 95 to 100% | 100% | 95 to 100% | 100% | 100% | 100% | 95 to 100% | 100% | 100%
CC(C)Oc1nsc(S(=O)(=O)C(F)F)c1C#N [Compound 144] | 100% | 100% | 95 to 100% | 100% | 100% | 95 to 100% | 100% | 95 to 100% | 100% | 100% | 100% | 95 to 100% | 100% | 100%
C#CCOc1nsc(S(=O)(=O)C(F)F)c1C#N [Compound 148] | 100% | 100% | 95 to 100% | 100% | 100% | 95 to 100% | 100% | 60 to 79% | 100% | 100% | 100% | 80 to 94% | 100% | 100%

Reference: patent publication US5484934A, “Isothiazole derivatives, a process for production thereof and uses thereof” (Nihon Nohyaku Co., Ltd., priority 1992, dated 1996)
